Measured values from patent publication US10059701B2 (Merck Patent GmbH, priority 2015, dated 2018).

Columns and labels:
IRAK4 = biological target: T1, IRAK4 (Homo sapiens, UniProt Q9NWZ3); test: IRAK4 enzymatic assay (ADP-Glo luminescence); assay type: biochemical; details: purified human recombinant His-TEV-IRAK4 (1-460), ATP 2 μM
T1 construct: His-TEV-IRAK4 (1-460); His (N); TEV cleavage site (N)
T1 sequence (Q9NWZ3 1-460): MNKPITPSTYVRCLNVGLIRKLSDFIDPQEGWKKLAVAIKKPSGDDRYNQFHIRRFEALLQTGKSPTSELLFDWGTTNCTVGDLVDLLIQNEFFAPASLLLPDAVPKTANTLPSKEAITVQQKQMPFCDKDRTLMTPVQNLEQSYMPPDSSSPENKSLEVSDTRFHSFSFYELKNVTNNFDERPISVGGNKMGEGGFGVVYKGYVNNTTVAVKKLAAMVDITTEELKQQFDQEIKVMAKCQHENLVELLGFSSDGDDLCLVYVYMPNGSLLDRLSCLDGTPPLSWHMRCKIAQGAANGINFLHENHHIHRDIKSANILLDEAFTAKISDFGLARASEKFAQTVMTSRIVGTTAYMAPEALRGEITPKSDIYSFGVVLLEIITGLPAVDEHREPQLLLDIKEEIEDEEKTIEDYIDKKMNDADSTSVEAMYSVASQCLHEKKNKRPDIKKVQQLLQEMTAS
Experimental: IRAK4 is a human purified recombinant enzyme (His-TEV-IRAK4 (1-460)).
In this assay, IRAK4 hydrolyses ATP, autophosphorylates and phosphorylates a Serine/Threonine generic peptidic substrate (STK: 61ST1BLC from CisBio International). Measurement of IRAK-4 inhibition is performed in 384-well format based on a luminescence assay (ADP-Glo™ Kinase Assay from Promega). Purified human recombinant IRAK4 (0.3 μg/ml) and serial diluted compounds in DMSO (range of concentration from 10 μM to 0.5 nM) or controls (1% DMSO) are incubated for 15 minutes at RT in assay buffer containing 50 mM Hepes pH 7.0, Fatty acid-free BSA 0.1%, Dithiothreitol (DTT) 2 mM, MgCl2 10 mM, EGTA 0.5 mM, Triton X-100 0.01%, MnCl2 5 mM. The kinase reaction is then initiated by the addition of ATP (2 μM) and the peptidic substrate STK1-biotin peptide (300 nM). After 2 hours of incubation at RT, the reaction is stopped and the unconsumed ATP depleted by the addition of ADP-Glo™ Reagent according to supplier instructions. After 40 minutes of incubation at RT, the Kinase Detection Reagent is then added to the assay plate according to supplier instructions. After 20 minutes of incubation at RT, the luminescence signal is measured with a plate-reading luminometer (PerkinElmer Envision or equivalent reader).

IRAK1 = biological target: T2, IRAK1 (Homo sapiens, UniProt P51617); test: IRAK1 enzymatic assay (ADP-Glo luminescence); assay type: biochemical; details: purified human recombinant His-TEV-IRAK1 (194-712)
T2 construct: His-TEV-IRAK1 (194-712); His (N); TEV cleavage site (N)
Experimental: IRAK1 is a human purified recombinant enzyme (His-TEV-IRAK1 (194-712))
In this assay, IRAK1 hydrolyses ATP and autophosphorylates. Measurement of IRAK-1 inhibition is performed in 384-well format based on luminescence assay (ADP-Glo™ Kinase Assay from Promega). Purified human recombinant IRAK1 (0.3 μg/ml) and serial diluted compounds in DMSO (range of concentration from 10 μM to 0.5 nM) or controls (1% DMSO) are incubated for 15 minutes at RT in assay buffer containing 50 mM Hepes pH 7.0, Fatty acid-free BSA 0.1%, Dithiothreitol (DTT) 2 mM, MgCl2 10 mM, EGTA 0.5 mM, Triton X-100 0.01%. The kinase reaction is then initiated by the addition of ATP […] After 2 hours of incubation at RT, the reaction is stopped and the unconsumed ATP depleted by the addition of ADP-Glo™ Reagent according to supplier instructions. After 40 minutes of incubation at RT, the Kinase Detection Reagent is then added to the assay plate according to supplier instructions. After 20 minutes of incubation at RT, the luminescence signal is measured with a luminometer (PerkinElmer Envision or equivalent reader).

T2 sequence (P51617 194-712): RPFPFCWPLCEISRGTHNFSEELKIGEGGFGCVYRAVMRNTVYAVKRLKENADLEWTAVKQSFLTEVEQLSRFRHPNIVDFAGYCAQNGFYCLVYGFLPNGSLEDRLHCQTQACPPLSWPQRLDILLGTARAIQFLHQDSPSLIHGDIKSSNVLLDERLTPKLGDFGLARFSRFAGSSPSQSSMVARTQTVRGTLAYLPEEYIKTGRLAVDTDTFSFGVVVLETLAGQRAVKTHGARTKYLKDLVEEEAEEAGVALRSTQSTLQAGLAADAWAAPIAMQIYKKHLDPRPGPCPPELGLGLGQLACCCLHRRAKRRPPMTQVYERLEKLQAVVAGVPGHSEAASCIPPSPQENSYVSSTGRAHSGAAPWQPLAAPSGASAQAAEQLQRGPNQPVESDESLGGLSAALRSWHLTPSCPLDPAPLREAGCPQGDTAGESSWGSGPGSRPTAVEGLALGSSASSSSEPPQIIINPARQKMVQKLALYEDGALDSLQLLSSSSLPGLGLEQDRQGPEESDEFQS

IC50 (IRAK4) [nM]	IC50 (IRAK1) [nM]	SMILES
≤ 100	100 to 1000	CC(C)(C)Cn1/c(=N/C(=O)c2cccc(C(F)(F)F)c2)[nH]c2cc(N3CCCOC3=O)ccc21 [Compound 173, (E)-N-(1-neopentyl-5-(2-oxo-1,3-oxazinan-3-yl)-1H-benzo[d]imidazol-2(3H)-ylidene)-3-(trifluoromethyl)benzamide]
≤ 100	100 to 1000	O=C(/N=c1\[nH]c2cc(N3CCOCC3=O)ccc2n1C1CCCC(CO)C1)c1cccc(C(F)(F)F)c1 (stereo not shown) [Compound 120, (E)-N-(1-(3-(hydroxymethyl)cyclohexyl)-5-(3-oxomorpholino)-1H-benzo[d]imidazol-2(3H)-ylidene)-3-(trifluoromethyl)benzamide]
≤ 100	≤ 100	O=C(/N=c1\[nH]c2cc(N3CCOCC3=O)ccc2n1CCCO)c1cccc(S(=O)(=O)C(F)(F)F)c1 [Compound 152, (E)-N-(1-(3-hydroxypropyl)-5-(3-oxomorpholino)-1H-benzo[d]imidazol-2(3H)-ylidene)-3-((trifluoromethyl)sulfonyl)benzamide]
≤ 100	100 to 1000	O=C(/N=c1\[nH]c2cc(N3CCCCS3(=O)=O)ccc2n1CCCO)c1cccc(C(F)(F)F)c1 [Compound 190, (E)-N-(5-(1,1-dioxido-1,2-thiazinan-2-yl)-1-(3-hydroxypropyl)-1H-benzo[d]imidazol-2(3H)-ylidene)-3-(trifluoromethyl)benzamide]
≤ 100	≤ 100	CC(F)(CO)Cn1/c(=N/C(=O)c2cccc(C(F)(F)F)c2)[nH]c2cc(N3CCCOC3=O)ccc21 (stereo not shown) [Example 226, (E)-N-(1-(2-fluoro-3-hydroxy-2-methylpropyl)-5-(2-oxo-1,3-oxazinan-3-yl)-1H-benzo[d]imidazol-2(3H)-ylidene)-3-(trifluoromethyl)benzamide]
≤ 100	100 to 1000	O=C(/N=c1\[nH]c2cc(N3CCOCC3=O)ccc2n1[C@H]1CC[C@H](O)CC1)c1cccc(C(F)(F)F)c1 [Compound 32, trans-(E)-N-(1-(4-hydroxycyclohexyl)-5-(3-oxomorpholino)-1H-benzo[d]imidazol-2(3H)-ylidene)-3-(trifluoromethyl)benzamide]
≤ 100	100 to 1000	CN1CCCN(c2ccc3c(c2)[nH]/c(=N\C(=O)c2cccc(C(F)(F)F)c2)n3CCCO)C1=O [Example 224, (E)-N-(1-(3-hydroxypropyl)-5-(3-methyl-2-oxotetrahydropyrimidin-1(2H)-yl)-1H-benzo[d]imidazol-2(3H)-ylidene)-3-(trifluoromethyl)benzamide]
≤ 100	100 to 1000	C[C@H](CCO)n1/c(=N/C(=O)c2cccc(C(F)F)c2)[nH]c2cc(N3CCCOC3=O)ccc21 [Compound 44, (R,E)-3-(difluoromethyl)-N-(1-(4-hydroxybutan-2-yl)-5-(2-oxo-1,3-oxazinan-3-yl)-1H-benzo[d]imidazol-2(3H)-ylidene)benzamide]
≤ 100	> 1000	O=C(/N=c1\[nH]c2cc(N3CCCOC3=O)ccc2n1C1CCC1)c1cccc(C(F)(F)F)c1 [Compound 170, (E)-N-(1-cyclobutyl-5-(2-oxo-1,3-oxazinan-3-yl)-1H-benzo[d]imidazol-2(3H)-ylidene)-3-(trifluoromethyl)benzamide]
≤ 100	≤ 100	CC1(C)CCOC(=O)N1c1ccc2c(c1)[nH]/c(=N\C(=O)c1cccc(C(F)(F)F)c1)n2CCCO [Example 220, (E)-3-(trifluoromethyl)-N-(5-(4,4-dimethyl-2-oxo-1,3-oxazinan-3-yl)-1-(3-hydroxypropyl)-1H-benzo[d]imidazol-2(3H)-ylidene)benzamide]
≤ 100	100 to 1000	CC(F)(F)Cn1/c(=N/C(=O)c2cccc(C(F)(F)F)c2)[nH]c2cc(N3CCCOC3=O)ccc21 [Compound 179, (E)-N-(1-(2,2-difluoropropyl)-5-(2-oxo-1,3-oxazinan-3-yl)-1H-benzo[d]imidazol-2(3H)-ylidene)-3-(trifluoromethyl)benzamide]
≤ 100	≤ 100	O=C(/N=c1\[nH]c2cc(N3CCNCC3=O)ccc2n1CCCO)c1cccc(C(F)(F)F)c1 [Compound 108, (E)-N-(1-(3-hydroxypropyl)-5-(2-oxopiperazin-1-yl)-1H-benzo[d]imidazol-2(3H)-ylidene)-3-(trifluoromethyl)benzamide]

Second part, the compound before the results:

SMILES	IC50 (IRAK4) [nM]	IC50 (IRAK1) [nM]
O=C(/N=c1\[nH]c2cc(N3CCOCC3=O)c(Cl)cc2n1CCCO)c1cccc(C(F)F)c1 [Compound 142, (E)-N-(6-chloro-1-(3-hydroxypropyl)-5-(3-oxomorpholino)-1H-benzo[d]imidazol-2(3H)-ylidene)-3-(difluoromethyl)benzamide]	≤ 100	100 to 1000
Cc1cc2c(cc1N1CCOCC1=O)[nH]/c(=N\C(=O)c1cccc(C(F)(F)F)c1)n2CCCO [Compound 70, (E)-N-(1-(3-hydroxypropyl)-6-methyl-5-(3-oxomorpholino)-1H-benzo[d]imidazol-2(3H)-ylidene)-3-(trifluoromethyl)benzamide]	≤ 100	100 to 1000
NC(=O)/C=C/c1cccc(C(=O)/N=c2\[nH]c3cc(N4CCOCC4=O)ccc3n2CCCO)c1 [Compound 34, (E)-3-((E)-3-amino-3-oxoprop-1-en-1-yl)-N-(1-(3-hydroxypropyl)-5-(3-oxomorpholino)-1H-benzo[d]imidazol-2(3H)-ylidene)benzamide]	≤ 100	≤ 100
COc1ccc(C(=O)/N=c2\[nH]c3cc(N4CCOCC4=O)ccc3n2CCCO)cc1C#N [Compound 38, (E)-3-cyano-N-(1-(3-hydroxypropyl)-5-(3-oxomorpholino)-1H-benzo[d]imidazol-2(3H)-ylidene)-4-methoxybenzamide]	> 1000	> 1000
CCNC(=O)N1CCC(n2/c(=N/C(=O)c3cccc(C(F)(F)F)c3)[nH]c3cc(N4CCOCC4=O)ccc32)CC1 [Compound 134, (E)-N-ethyl-4-(5-(3-oxomorpholino)-2-((3-(trifluoromethyl)benzoyl)imino)-2,3-dihydro-1H-benzo[d]imidazol-1-yl)piperidine-1-carboxamide]	≤ 100	100 to 1000
CCNC(=O)N1CCC(n2/c(=N/C(=O)c3cccc(C(F)F)c3)[nH]c3cc(N4CCOCC4=O)ccc32)CC1 [Compound 135, (E)-4-(2-((3-(difluoromethyl)benzoyl)imino)-5-(3-oxomorpholino)-2,3-dihydro-1H-benzo[d]imidazol-1-yl)-N-ethylpiperidine-1-carboxamide]	≤ 100	≤ 100
Cn1nc(C(=O)/N=c2\[nH]c3cc(N4CCOCC4=O)ccc3n2CCCO)c2ccccc21 [Compound 60, (E)-N-(1-(3-hydroxypropyl)-5-(3-oxomorpholino)-1H-benzo[d]imidazol-2(3H)-ylidene)-1-methyl-1H-indazole-3-carboxamide]	> 1000	> 1000
O=C(/N=c1\[nH]c2cc(N3CCOCC3=O)ccc2n1CC1(CO)CC1)c1cccc(OC(F)F)c1 [Compound 66, (E)-3-(difluoromethoxy)-N-(1-((1-(hydroxymethyl)cyclopropyl)methyl)-5-(3-oxomorpholino)-1H-benzo[d]imidazol-2(3H)-ylidene)benzamide]	≤ 100	100 to 1000
